Source: US20260335282A1, “NOVEL 3-ARYLIDENE-2-INDOLINONE DERIVATIVES FOR THERAPEUTIC USE” (ISTANBUL UNIVERSITESI REKTORLUGU, priority 2022, published 2026)
Read-outs that look alike come from different tables or passages of the source.

Experiments:
[1] = tested on: MCF-7 cells; test: MTT cytotoxicity, breast cancer cells MCF-7; format: cell-based, human; conditions: for IC50: MTT
Summary of the method: (§1)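 Viability was quantified by MTT reduction following 48 and/or 72 h compound exposure at four concentrations (0.1, 1, 5, 10 μM). Values are percentages of DMSO-treated controls, with IC50 fitted from dose-response data.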

[2] = tested on: MDA-MB-231 cells; test: MTT cytotoxicity, breast cancer cells MDA-MB-231; format: cell-based, human; conditions: MTT, no * mark (incubation time not given)
Summary of the method: as §1

[3] = tested on: MCF-10F/Beas2b cells; test: MTT cytotoxicity, healthy cells MCF-10F/Beas2b; format: cell-based, human; conditions: MCF-10F/Beas2b vs breast or kidney cancer cells; cancer line not given
Summary of the method: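 Cells exposed to compounds at 0.1, 1, 5 and 10 μM (DMSO vehicle-matched controls) for 48 and/or 72 h, then MTT 4 h; formazan in DMSO read at 570/630 nm. Viability as % of control; IC50 from dose-response curves. Healthy cells tested at 10-fold the cancer-cell IC50 concentration.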

[4] = tested on: human cancer cells; test: MTT cell viability, human cancer cells overall; format: cell-based; conditions: cell line as discussed at the place
From the text: The cytotoxicity, general tyrosine kinase inhibitory effects and cell death (apoptosis/necrosis) assays of 1-benzyl-3-(1H-indol-3-ylmethylidene)-1,3-dihydro-2H-indol-2-one derivatives (Formula 5) of the present invention are studied by the following methods. […] HUVEC (human umbilical vein endothelial cell), MCF-10F (human breast epithelial cell) and Beas2b (human lung bronchial epithelial cell) cell lines have been used as healthy control cells in MTT experiments.
Beas2b (human lung bronchiole epithelial cell) and HEK293 (renal tubule epithelium) cells used as normal cell lines were cultured in RPMI medium, and HUVEC (human umbilical cord endothelial cells) and MCF-10F (human breast epithelial cell) cells are cultured in DMEM medium containing 100 µg/ml penicillin/streptomycin. The cells, which covered 70% of the culture flask, are washed with phosphate buffer and then removed from the surface of the flask by application of trypsin-ethylenediamine tetraacetic acid (Trypsin-EDTA; 0.25%) solution, passaged, counted and seeded on appropriate plates before each experiment. Cells are treated with a total of 45 2-indolinone compounds (5) at concentrations of 0.1, 1, 5 and 10 μM. Stock compounds are prepared in 1 ml dimethylsulfoxide (DMSO) and 4 different dilutions were prepared with medium and performed to the cells. Control group cells are treated with DMSO at a similar concentration to the experimental groups.
MTT (3-(4,5-dimethylthiazol-2-yl)-2,5-diphenyl-2H-tetrazolium bromide) colorimetric assay provides quantitation of viable cells with ongoing mitochondrial activity in culture medium. According to the standard procedure in cell culture conditions, cells are maintained in RPMI-1640 and DMEM culture media containing 10% FBS and 1% penicillin/streptomycin. The trypan blue test is used for cell counts.
The effects of 45 2-indolinone compounds (5) on cell viability in all cancer cell lines are investigated by MTT assay. Cells are seeded in a 96-well flat bottom plate with 5000 cells in each well and 2-indolinone compounds (5) at concentrations of 0.1, 1, 5 and 10 μM are performed to the cells the next day. After 48 and/or 72 hours following treatment with 2-indolinone compounds, 50 μl of the supernatant is slowly discarded (as it was acid medium) and MTT at a concentration of 5 mg/ml is added to each well in a volume of 10 μl. After incubation for 4 hours, the formazan crystals formed in the wells are dissolved by adding 100 μl DMSO and the optical density is read at 570 nm test wavelength and 630 nm reference wavelength. Cell viability is expressed as % cell viability by comparing the absorbance of control and test wells. IC50 value is calculated from the dose-response curves prepared for each compound. In addition, the possible DMSO effect is eliminated by preparing negative control wells compatible with the amount of DMSO contained in the compounds. To understand the reaction of the compounds with MTT, cell-free (MTT+compounds) negative controls are prepared at the concentrations used (Mosmann, 1983). […] The absorbance values obtained are compared to the control and statistically evaluated by unpaired t-test using “Graphpad Prism 5.04” software. “P<0.05” is accepted as significant. When evaluating cytotoxic effects, the present inventors aim for the inventive compounds to be effective in cancer cells and ineffective in healthy cells. […]

[5] = tested on: HUVEC cells; test: MTT cytotoxicity, healthy cells HUVEC; format: cell-based, human; conditions: for Selectivite Index (SI), HUVEC (Table 1): HUVEC vs breast or kidney cancer cells, cancer line not given; for IC50: MTT
Summary of the method: as §1

[6] = tested on: A549 cells; test: MTT cytotoxicity, lung cancer cells A549; format: cell-based, human
Summary of the method: as §1

[7] = tested on: CAKI-1 cells; test: MTT cytotoxicity, kidney cancer cells CAKI-1; format: cell-based, human
Summary of the method: as §1

[8] = tested on: MIAPaCa-2 cells; test: MTT cytotoxicity, pancreas cancer cells MIAPaCa-2; format: cell-based, human
Summary of the method: (§2)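 Cells were seeded at 5000 per well and treated next day with compound at 0.1, 1, 5 and 10 μM (final) for 48 and/or 72 h, with matched DMSO controls. MTT was added for 4 h and formazan was dissolved in DMSO and read at 570/630 nm. % viability against control gave IC50 from dose-response curves.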

[9] = tested on: HCT-116 cells; test: MTT cytotoxicity, colon cancer cells HCT-116; format: cell-based, human
Summary of the method: as §2

[10] = tested on: HT-29 cells; test: MTT cytotoxicity, colon cancer cells HT-29; format: cell-based, human; conditions: MTT
Summary of the method: as §2

[11] = tested on: A498 cells; test: MTT cytotoxicity, kidney cancer cells A498; format: cell-based, human; conditions: for IC50: MTT
Summary of the method: as §1

[12] = tested on: general tyrosine kinase activity in A498 kidney cancer cells; test: General tyrosine kinase activity (ELISA) in A498 cells; format: cell-based, human; conditions: 72 h, IC50 concentration
Protocol: Takara Universal Tyrosine Kinase Assay Kit is used to determine the effects of 11 2-indolinone compounds (Y1, Y2, Y3, Y4, Y5, Y8, […], […], Y21, Y23, 20C, 22C) on general tyrosine kinase activity in cancer cells. Cells are seeded in 6-well plates (4.10^5 cells/well) and the IC50 concentration of each selected molecule is performed to the cells for 48 or 72 hours. Cells in the control group are incubated with medium only. At the end of the incubation period, the cells in each well are washed with PBS and cells are removed from the wells using a cell scraper via 1 ml of the extraction buffer in the kit. The cell lysate is transferred to ependorf tubes and centrifuged at 10.000 g for 10 minutes at +4° C. and the supernatant is used as a sample for activity determination. After the extracts obtained from the control and experimental groups are diluted 1:25, 40 μl extracts is transferred to two wells in the 96-well plate in the kit. In addition, the standard solution in the kit is diluted according to the kit instructions and each concentration is transferred 40 μl into three wells. 10 μl of 40 mM ATP-2Na solution is added to all wells and the plate is incubated at 37° C. for 30 minutes. […] The reaction is finished by adding 100 μl of stop solution to each well and the optical density in each well is measured at 405 nm with a microplate reader (BioTek, USA). The tyrosine kinase activity in each sample is calculated from the standard curve obtained from the absorbance values of the standard solutions with the kit (Chan W Y, Lau P M, Yeung K W, Kong S K. The second generation tyrosine kinase inhibitor dasatinib induced eryptosis in human erythrocytes—An in vitro study. Toxicol Lett. 2018; 295:10-21). […]
The effects of 11 2-indolinone compounds (Y1, Y2, Y3, Y4, Y5, Y8, Y14, Y21, Y23, 20C and 22C) having the structure of formula (5), which are prominent with their cytotoxicity in A498, MIAPaCa-2 and HCT-116 cancer cell lines and nontoxic properties in healthy cells, on general tyrosine kinase activity in cancer cells are determined.

[13] = tested on: primary tumor; conditions: combination with docetaxel, Patyna et al. 2006; cited from earlier work
[14] = tested on: MIAPaCa-2 cells; test: Apoptosis/necrosis detection, Annexin V/PI flow cytometry, MiaPaca-2; format: cell-based, human
Protocol: (§3) After incubation with 2-indolinone compounds (IC50 μM concentration; 48 and/or 72 hours), cells are washed twice with PBS and the cell pellet is suspended in Annexin V binding buffer. After this incubation, cells are incubated with FITC-conjugated Annexin V and propidium iodine staining solution for 15 minutes in the dark and at room temperature. Then, cells are analyzed by flow cytometry (Beckman coulter, Navios) (Wlodkowic, D., Skommer, J, Darzynkiewicz, Z. 2009. Flow cytometry-based apoptosis detection, Methods Mol Biol., 559, 1-14).

[15] = tested on: A498 cells; test: Apoptosis/necrosis detection, Annexin V/PI flow cytometry, A498; format: cell-based, human; conditions: A498
Protocol: as §3

[16] = no * mark (incubation time not specified)
[17] = read-out: IC50, MDA-MB-231 (breast)
[18] = MTT, no * mark (incubation time not specified)

SMILES: O=C1/C(=C\c2c[nH]c3ccccc23)c2cccc(Cl)c2N1Cc1ccccc1 [22C]
- selectivity index (SI) ([1]; MCF-10F vs MCF-7): > 17
- IC50 [1, 16]: 0.57 µM
- IC50 [2, 17]: 8.4 µM
- Selectivite Index (SI), MCF-10F/Beas2b (Table 1) [3]: > 17.54
- potency/selectivity compared with sunitinib malate [4]: much more potent and have higher SI values than the reference compound sunitinib malate
- Selectivite Index (SI), HUVEC (Table 1) [5]: > 17.54
- IC50 [5, 16]: > 10 µM
- IC50 [6, 16]: > 10 µM
- IC50 [7, 16]: 2.49 µM
- IC50 [8, 18]: > 10 µM
- IC50 [9, 16]: > 10 µM
- IC50 [10, 16]: > 10 µM
- IC50 [11, 16]: > 10 µM

SMILES: Cn1cc(/C=C2\C(=O)N(Cc3ccccc3)c3ccc(Cl)cc32)c2ccccc21 [Y23]
- IC50 [1, 16]: 4.9 µM
- IC50 [2, 17]: 4.72 µM
- Selectivite Index (SI), MCF-10F/Beas2b (Table 1) [3]: > 11.23
- Selectivite Index (SI), HUVEC (Table 1) [5]: 4.70
- IC50 [5, 16]: 4.18 µM
- IC50 [6, 16]: > 10 µM
- IC50 [7, 16]: 4.98 µM
- IC50 [8, 18]: > 10 µM
- IC50 [9, 16]: 1.62 µM
- general tyrosine kinase activity compared to control [12]: did not cause a significant change
- IC50 [10, 16]: 4.18 µM
- selectivity index ([11]; MCF-10F/Beas2b vs A498): > 11
- IC50 [11, 16]: 0.89 µM

SMILES: Cc1[nH]c(/C=C2\C(=O)Nc3ccc(F)cc32)c(C)c1C(=O)NCC(O)CN1CCOCC1 (centres unmarked) [SU14813]
- inhibition of primary tumor growth and survival [13]: significantly improve both inhibition of primary tumor growth and survival of tumor-bearing mice

SMILES: CCN(CC)CCNC(=O)c1c(C)[nH]c(/C=C2\C(=O)Nc3ccc(F)cc32)c1C [Sunitinib malate, reference compound]
- IC50 ([1]; Homo sapiens, MCF7, no * mark (incubation time not given)): 9.78 µM
- IC50 ([2]; Homo sapiens, MDA-MB-231, read-out: IC50, MDA-MB-231 (breast)): > 10 µM
- IC50 ([5]; Homo sapiens, HUVEC, no * mark (incubation time not given)): 2.94 µM
- IC50 ([6]; Homo sapiens, A549, no * mark (incubation time not given)): > 10 µM
- IC50 ([7]; Homo sapiens, CAKI-1, no * mark (incubation time not given)): 5.13 µM
- IC50 ([8]; Homo sapiens, MIA PaCa-2, 72 h, MTT, *: effective 72 hours after incubation): 4.03 µM
- IC50 ([8]; Homo sapiens, MIA PaCa-2, MTT, no * mark (incubation time not given)): 0.61 µM
- IC50 [8, 18]: 1.18 µM
- IC50 ([9]; Homo sapiens, HCT-116, no * mark (incubation time not given)): 1.78 µM
- necrosis compared to control ([14]; MiaPaca-2): did not cause necrosis
- apoptosis (early and late) compared to control ([14]; MiaPaca-2, IC50 values): increase in apoptosis at IC50 values was statistically significant
- necrosis compared to control [15]: no increase or decrease
- viability, early apoptosis and late apoptosis compared to control ([15]; Y3 at IC50, sunitinib malate 10 μM): 10 μM dose is found to be the most significant
- IC50 ([10]; Homo sapiens, HT-29, no * mark (incubation time not given)): 2.94 µM
- IC50 ([11]; Homo sapiens, A498, 72 h, *: effective 72 hours after incubation): 3.46 µM
- IC50 [11, 16]: 3.71 µM
- IC50 ([11]; no * mark (incubation time not specified), listed as sunitinib malate): > 10 µM
